Results as given in ChEMBL document CHEMBL1153369, “First asymmetric synthesis of CJ-14877 and its enantiomer and their interleukin-1beta inhibitory activities” (2009).

Assays:
Type in all cases: functional
PBMC [1] = experiment: Inhibition of LPS-induced IL1-beta production in human PBMC at 0.1 uM after 24 hrs by ELISA
PBMC [2] = experiment: Inhibition of LPS-induced IL1-beta production in human PBMC at 0.01 uM after 24 hrs by ELISA
PBMC [3] = experiment: Inhibition of LPS-induced IL1-beta production in human PBMC at 10 uM after 24 hrs by ELISA
PBMC [4] = experiment: Inhibition of LPS-induced IL1-beta production in human PBMC at 1.0 uM after 24 hrs by ELISA

Row | SMILES | inhibition at 0.1 µM (PBMC [1]) | inhibition at 0.01 µM (PBMC [2]) | inhibition at 10 µM (PBMC [3]) | inhibition at 1 µM (PBMC [4])
1 | COC(=O)c1ccc([C@@H](O)[C@@H](C)O)cn1 | 4.3% | 9.1% | -7.5% | 10.6%
2 | COC(=O)c1ccc([C@H](O)[C@H](C)O)cn1 | 13.8% | -9.5% | 49.8% | 39.6%
